Consider 23 molecules from patent US10696693B2, “Fused imidazole derivatives as TGF-beta inhibitors” (Rigel Pharmaceuticals, Inc., priority 2014, dated 2020).

Read-outs that look alike come from different tables or passages of the source.

One experiment deals with TGF-β. The experiment is described as follows: AlphaScreen SureFire p-SMAD3 (Ser423/425) assay, TGF-β-stimulated cells. Type of experiment: cell-based. Put shortly:
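The p-SMAD-3 (Ser423/425) SureFire assay measured phosphorylation of endogenous SMAD-3 in cell lysates. Cells were plated overnight in collagen-coated plates, exposed to three-fold serially diluted compounds for about 10 minutes, then stimulated with TGFβ. Lysates (5 μL) received acceptor bead mix for 2 hours, then donor beads for 1½ hours before AlphaScreen reading.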
A general note: Alpha assays give light when donor and acceptor beads are brought close together.

In a further experiment the test system is GDF8. The experiment is described as follows: AlphaScreen SureFire p-SMAD3 (Ser423/425) assay, GDF8-stimulated cells. Type of experiment: cell-based. Put shortly:
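Lysate (5 μL) went into 384-well shallow plates with 5 μL of Reaction Buffer, Activation Buffer and AlphaScreen Acceptor bead mix. Plates were sealed, kept dark and shaken for 2 hours at room temperature. Donor beads in dilution buffer (2 μL) were added for another 1½ hours, and p-SMAD3 signal was read on a Synergy-4 or Enspire reader.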

Setting [1] is: Mus musculus, p-SMAD3 (Ser423/425) AlphaScreen in cell lysate, MPC-11, TGF-β stimulation, read-out: TGF-β: inhibition of TGF-β signaling, TGF-β pSMAD (MPC-11).
[2] abbreviates: Mus musculus, MPC-11, p-SMAD3 (Ser423/425) AlphaScreen in cell lysate, MPC11, GDF8 stimulation, read-out: GDF8: inhibition of GDF8 signaling, GDF pSMAD (MPC11).
Setting [3] is: Mus musculus, MPC-11, read-out: TGF-β: inhibition of TGF-β signaling, TGF-β pSMAD (MPC-11), p-SMAD3 (Ser423/425) AlphaScreen in cell lysate, TGF-β stimulation.
Where [4] appears, read: Mus musculus, MPC-11, read-out: GDF8: inhibition of GDF8 signaling, GDF pSMAD (MPC11), p-SMAD3 (Ser423/425) AlphaScreen in cell lysate, GDF8 stimulation.

For the molecule `Fc1cc(F)c(F)c(-c2nc3n(c2-c2ccc4nccnc4c2)CCN3)c1` [Compound 111, 6-(6-(2,3,5-trifluorophenyl)-2,3-dihydro-1H-imidazo[1,2-a]imidazol-5-yl)quinoxaline], the IC50 in the experiment with TGF-β (setting [1]) and in the experiment on GDF8 (setting [2]) was below 50 nM in each case.

On to `Clc1cccc(-c2nc3n(c2-c2ccc4cn[nH]c4c2)CCC3)c1` [Compound 190, 6-(2-(3-chlorophenyl)-6,7-dihydro-5H-pyrrolo[1,2-a]imidazol-3-yl)-1H-indazole], for which the values for the IC50 in the experiment with TGF-β (setting [3]) and in the experiment on GDF8 (setting [4]) were 50 to 100 nM and below 50 nM, respectively.

Take `O=S(=O)(Nc1cccc(-c2nc3n(c2-c2ccc4[nH]ncc4c2)CCC3)c1)c1ccccc1F` [Compound 320, N-(3-(3-(1H-indazol-5-yl)-6,7-dihydro-5H-pyrrolo[1,2-a]imidazol-2-yl)phenyl)-2-fluorobenzenesulfonamide]: the IC50 in the experiment with TGF-β (setting [3]) and in the experiment with GDF8 (setting [4]) was above 1000 nM throughout.

As to `Fc1cc(F)c(-c2nc3n(c2-c2ccc4ncnn4c2)CCC3)cc1Cl` [Compound 94, 6-(2-(5-chloro-2,4-difluoro)-6,7-dihydro-5H-pyrrolo[1,2-a]imidazol-3-yl)-[1,2,4]triazolo[1,5-a]pyridine], the IC50 in the experiment with TGF-β (setting [1]) and with GDF8 (setting [2]) was below 50 nM in each case.

As for `CNCC1CCC2(CC1)Cc1nc(-c3ccc(F)cc3)c(-c3ccc4ncnn4c3)n1C2` (stereo not shown) [Compound 86, 1-(3′-([1,2,4]triazolo[1,5-a]pyridin-6-yl)-2′-(4-fluorophenyl)-5′H,7′H-spiro[cyclohexane-1,6′-pyrrolo[1,2-a]imidazol]-4-yl)-N-methylmethanamine], the IC50 in the experiment on TGF-β (setting [1]) and with GDF8 (setting [2]) was above 1000 nM throughout.

For `O=C(O)C1Cn2c(nc(-c3cc(F)cc(F)c3F)c2-c2ccc3ncnn3c2)N1` (stereo not shown) [Compound 118, 5-([1,2,4]triazolo[1,5-a]pyridin-6-yl)-6-(2,3,5-trifluorophenyl)-2,3-dihydro-1H-imidazo[1,2-a]imidazole-2-carboxylic acid], the IC50 with TGF-β (setting [1]) and in the experiment on GDF8 (setting [2]) was below 50 nM each time.

Take `COc1cccc(-c2nc3n(c2-c2ccc4nccnc4c2)CCC3)c1` [Compound 188, 6-(2-(3-methoxyphenyl)-6,7-dihydro-5H-pyrrolo[1,2-a]imidazol-3-yl)quinoxaline]: the IC50 in the experiment on TGF-β (setting [3]) and in the experiment on GDF8 (setting [4]) was 100 to 1000 nM in each case.

Turning to `Cc1cc(-c2nc3n(c2-c2ccc4nccnc4c2)CCC3)c(Cl)cc1F` [Compound 321, 6-(2-(2-chloro-4-fluoro-5-methylphenyl)-6,7-dihydro-5H-pyrrolo[1,2-a]imidazol-3-yl)quinoxaline], the IC50 with TGF-β (read-out: TGF-β: inhibition of TGF-β signaling, TGF-β pSMAD (MPC-11), p-SMAD3 (Ser423/425) AlphaScreen in cell lysate, TGF-β stimulation) is above 1000 nM; in the experiment with GDF8 (read-out: GDF8: inhibition of GDF8 signaling, GDF pSMAD (MPC11), p-SMAD3 (Ser423/425) AlphaScreen in cell lysate, GDF8 stimulation) it was above 1000 nM.

In the case of `Cc1cc(-c2nc3n(c2-c2ccc4[nH]ncc4c2)CCC3)c(Cl)cc1F` [Compound 316, 5-(2-(2-chloro-4-fluoro-5-methylphenyl)-6,7-dihydro-5H-pyrrolo[1,2-a]imidazol-3-yl)-1H-indazole], the IC50 with TGF-β (setting [3]) and with GDF8 (setting [4]) was 100 to 1000 nM in each case.

On to `Cc1cc(-c2nc3n(c2-c2ccc4[nH]ncc4c2)CCC3)ccc1F` [Compound 172, 5-(2-(4-fluoro-3-methylphenyl)-6,7-dihydro-5H-pyrrolo[1,2-a]imidazol-3-yl)-1H-indazole], for which the IC50 in the experiment on TGF-β (setting [3]) was 50 to 100 nM; in the experiment with GDF8 (setting [4]), below 50 nM.

Turning to `Cc1cc(F)c(Cl)cc1-c1nc2n(c1-c1ccc3nccn3c1)CCC2` [Compound 57, 6-(2-(5-chloro-4-fluoro-2-methylphenyl)-6,7-dihydro-5H-pyrrolo[1,2-a]imidazol-3-yl)imidazo[1,2-a]pyridine], the IC50 in the experiment on TGF-β (setting [1]) and with GDF8 (setting [2]) was 100 to 1000 nM throughout.

With `Cc1cc(F)c(Cl)cc1-c1nc2n(c1-c1ccc3ncsc3c1)CCC2` [Compound 297, 6-(2-(5-chloro-4-fluoro-2-methylphenyl)-6,7-dihydro-5H-pyrrolo[1,2-a]imidazol-3-yl)benzo[d]thiazole], the IC50 with TGF-β (setting [1]) and in the experiment with GDF8 (setting [2]) was 100 to 1000 nM in each case.

Turning to `Cc1cccc(-c2nc3n(c2-c2ccc4ncsc4c2)CCC3)c1` [Compound 170, 6-(2-(m-tolyl)-6,7-dihydro-5H-pyrrolo[1,2-a]imidazol-3-yl)benzo[d]thiazole], the IC50 in the experiment on TGF-β (setting [1]) was 50 to 100 nM; with GDF8 (setting [2]), below 50 nM.

Consider `Cc1c(F)ccc(-c2nc3n(c2-c2ccc4nccnc4c2)CCC3)c1F` [Compound 282, 6-(2-(2,4-difluoro-3-methylphenyl)-6,7-dihydro-5H-pyrrolo[1,2-a]imidazol-3-yl)quinoxaline], for which the IC50 in the experiment on TGF-β (setting [1]) and in the experiment with GDF8 (setting [2]) was 100 to 1000 nM throughout.

With `Fc1ccc(-c2nc3n(c2-c2ccc4ncccc4c2)CCC3)c(F)c1` [Compound 211, 6-(2-(2,4-difluorophenyl)-6,7-dihydro-5H-pyrrolo[1,2-a]imidazol-3-yl)quinoline], the IC50 in the experiment on TGF-β (setting [1]) and in the experiment on GDF8 (setting [2]) was 100 to 1000 nM each time.

As to `Fc1ccc(-c2nc3occn3c2-c2ccc3[nH]ncc3c2)cc1F` [Compound 133, 6-(3,4-difluorophenyl)-5-(1H-indazol-5-yl)imidazo[2,1-b]oxazole], the IC50 with TGF-β (setting [1]) and in the experiment on GDF8 (setting [2]) was 50 to 100 nM throughout.

As for `CC(C)c1nnc2ccc(-c3c(-c4cc(F)c(Cl)cc4F)nc4n3CCC4)cn12` [Compound 20, 6-(2-(4-chloro-2,5-difluorophenyl)-6,7-dihydro-5H-pyrrolo[1,2-a]imidazol-3-yl)-3-isopropyl-[1,2,4]triazolo[4,3-a]pyridine], the IC50 with TGF-β (setting [1]) and in the experiment with GDF8 (setting [2]) was above 1000 nM each time.

Regarding `Cc1cc(F)c(Cl)cc1-c1nc2n(c1-c1ccc3ncccc3c1)CCC2` [Compound 299, 6-(2-(5-chloro-4-fluoro-2-methylphenyl)-6,7-dihydro-5H-pyrrolo[1,2-a]imidazol-3-yl)quinoline], the IC50 in the experiment with TGF-β (setting [3]) is above 1000 nM; in the experiment on GDF8 (setting [4]) it was 100 to 1000 nM.

Take `Clc1ccc(Cl)c(-c2nc3n(c2-c2ccc4nccnc4c2)CCC3)c1` [Compound 348, 6-(2-(2,5-dichloropheny)-6,7-dihydro-5H-pyrrolo[1,2-a]imidazol-3-yl)quinoxaline]: the IC50 in the experiment on TGF-β (setting [1]) was 50 to 100 nM; with GDF8 (setting [2]) it was below 50 nM.

`Fc1ccc(-c2nc3n(c2-c2ccc4ncnn4c2)CC2(CCCC2)C3)cc1` [Compound 71, 3′-([1,2,4]triazolo[1,5-a]pyridin-6-yl)-2′-(4-fluorophenyl)-5′H,7′H-spiro[cyclopentane-1,6′-pyrrolo[1,2-a]imidazole]]: the IC50 in the experiment with TGF-β (setting [3]) and in the experiment with GDF8 (setting [4]) was above 1000 nM in each case.

With `Fc1ccc(-c2nc3occn3c2-c2ccc3[nH]ncc3c2)cc1` [Compound 126, 6-(4-fluorophenyl)-5-(1H-indazol-5-yl)imidazo[2,1-b]oxazole], the IC50 in the experiment on TGF-β (setting [1]) is 50 to 100 nM; with GDF8 (setting [2]) it was below 50 nM.

As for `Cc1c(F)ccc(-c2nc3n(c2-c2ccc4ncnn4c2)CCC3)c1C` [Compound 73, 6-(2-(4-fluoro-2,3-dimethylphenyl)-6,7-dihydro-5H-pyrrolo[1,2-a]imidazol-3-yl)-[1,2,4]triazolo[1,5-a]pyridine], the values for the IC50 with TGF-β (setting [3]) and in the experiment on GDF8 (setting [4]) were above 1000 nM and 100 to 1000 nM, respectively.

Turning to `Cc1cc(-c2nc3n(c2-c2ccc4nccnc4c2)CCC3)cc(C)c1Cl` [Compound 245, 6-(2-(4-chloro-3,5-dimethylphenyl)-6,7-dihydro-5H-pyrrolo[1,2-a]imidazol-3-yl)quinoxaline], the IC50 with TGF-β (setting [1]) and with GDF8 (setting [2]) was above 1000 nM in each case.
